Data set [1] relates to bleomycin-induced skin fibrosis. Briefly: bleomycin-induced skin fibrosis, preventive and therapeutic models. In kind it is in vivo, mouse. The method, then:
Methods: To evaluate the preventive and therapeutic effects of compound I-1 on skin fibrosis, bleomycin was used to establish two animal models of skin fibrosis with different drug intervention (6-8 weeks, C57BL/6, male). Skin fibrosis was induced by local injection of bleomycin (0.5 mg/mL, 0.1 ml/mouse) in a skin defined area (˜1 cm^2), where the hair was removed in advance, at the upper back every other day. Subcutaneous saline injections served as controls. (I) Preventive model of bleomycin-induced skin fibrosis: Compound I-1, positive control DB1976, or vehicle (saline) were injected i.p. simultaneously with bleomycin for 4 weeks (FIG. 3a). (II) Therapeutic model of bleomycin-induced skin fibrosis: Mice were pre-charged with bleomycin for 3 weeks to induce skin fibrosis, then treated with compound I-1, positive control DB1976, or vehicle (saline) for another 3 weeks, total time is 6 weeks after the first bleomycin treatment (FIG. 30. After the last day of treatment of both models, mice were fasted overnight and euthanized. Part of the skin was fixed with paraformaldehyde after fully flat on a foil, embedded with paraffin, and then sliced for H&E, Sirius red and Masson staining to check pathological features. The epidermal thickness of each sample was calculated quantitatively with image J. Another part of skin was collected and stored at −80° C. after liquid nitrogen quick-freezing, RNA isolation (Code.R6934, OMEGA, USA), first cDNA reverse (Code.AT341, TransGen, China), SYBR mix (Code.AQ601, TransGen, China) for Q-PCR (LightCycler® 96, Roche) to verify several fibrosis-related genes mRNA level, such as, Col1a1 and Col1a2.

Data set [2] deals with CCl4-induced liver fibrosis. The experiment in a line: CCl4 (higher dose)-induced liver fibrosis model. In kind it is in vivo, mouse. The settings on record: 5mpk or 10mpk i.p. once daily for 6 weeks. From the text: Methods: To evaluate the potential therapeutic effects of compound I-1 on liver disorders, including liver fat steatosis and accumulation, nonalcoholic fatty liver disease (NAFLD), nonalcoholic steatosis hepatitis (NASH), and liver fibrosis, three mice models (C57BL/6, male, 8 weeks old) were used. (I) NASH diet (Code.TD.160785, ENVIGO, USA)-induced NASH model: All mice were fed with NASH diet for 10 weeks. Mice were then randomly distributed into three groups, and each group was assigned to be injected daily with vehicle, compound I-1 (2.5mpk or 5mpk, i.p.), or DB1976 (2.5mpk, i.p, as a positive control) for another 6 weeks on continuous NASH diet. A group with normal regular diet was treated with vehicle as health control. (II) High-fat diet (HFD) combinate with CCl4 (lower dose)—induced NASH model. Mice were fed with normal regular diet or HFD (kcal fat 60%—D12492, research diets) for 10 weeks, then the HFD mice were divided into two groups randomly based on the rule of minimum weight differences. Each group was assigned to be injected with CCl4 (25% v/v in olive oil, 0.5 mL/kg body weight) or pure olive oil (i.p.) twice a week for 4 weeks. Compound 1-1 or vehicle (saline) were injected (i.p.) once daily for 4 weeks at the same time with CCl4 under continuous HFD. (III) CCl4 (higher dose)—induced liver fibrosis model. Liver fibrosis was induced by CCl4 injection (20% v/v in olive oil, 10 mL/kg body weight) twice a week for 6 weeks, compound I-1 or vehicle are also injected (i.p.) once daily for 6 weeks at the same time with CCl4 application. Ail the mice in the above-mentioned three models were observed daily. After the last day of treatment of all the models, mice were fasted overnight and euthanized. Serum was collected after centrifuging of the whole blood at 4 degrees, and blood biochemistry parameters were tested through automatic biochemical instrument (BS-240VET, Mindray). Part of liver tissues were fixed with paraformaldehyde, embedded with paraffin, and then sliced for H&E or Sirius red staining to check pathological features, and NAFLD scores. […]

In another data set the test system is NASH diet-induced NASH. The experiment in a line: NASH diet-induced NASH model. It is filed as in vivo, mouse. From the text:
(§1) Methods: To evaluate the potential therapeutic effects of compound I-1 on liver disorders, including liver fat steatosis and accumulation, nonalcoholic fatty liver disease (NAFLD), nonalcoholic steatosis hepatitis (NASH), and liver fibrosis, three mice models (C57BL/6, male, 8 weeks old) were used. (I) NASH diet (Code.TD.160785, ENVIGO, USA)-induced NASH model: All mice were fed with NASH diet for 10 weeks. Mice were then randomly distributed into three groups, and each group was assigned to be injected daily with vehicle, compound I-1 (2.5mpk or 5mpk, i.p.), or DB1976 (2.5mpk, i.p, as a positive control) for another 6 weeks on continuous NASH diet. A group with normal regular diet was treated with vehicle as health control. (II) High-fat diet (HFD) combinate with CCl4 (lower dose)—induced NASH model. Mice were fed with normal regular diet or HFD (kcal fat 60%—D12492, research diets) for 10 weeks, then the HFD mice were divided into two groups randomly based on the rule of minimum weight differences. Each group was assigned to be injected with CCl4 (25% v/v in olive oil, 0.5 mL/kg body weight) or pure olive oil (i.p.) twice a week for 4 weeks. Compound 1-1 or vehicle (saline) were injected (i.p.) once daily for 4 weeks at the same time with CCl4 under continuous HFD. (III) CCl4 (higher dose)—induced liver fibrosis model. Liver fibrosis was induced by CCl4 injection (20% v/v in olive oil, 10 mL/kg body weight) twice a week for 6 weeks, compound I-1 or vehicle are also injected (i.p.) once daily for 6 weeks at the same time with CCl4 application. Ail the mice in the above-mentioned three models were observed daily. After the last day of treatment of all the models, mice were fasted overnight and euthanized. Serum was collected after centrifuging of the whole blood at 4 degrees, and blood biochemistry parameters were tested through automatic biochemical instrument (BS-240VET, Mindray). Part of liver tissues were fixed with paraformaldehyde, embedded with paraffin, and then sliced for H&E or Sirius red staining to check pathological features, and NAFLD scores. Kleiner, D. E. et al. Hepatology 41, 1313-1321, doi:10.1002/hep.20701 (2005). Part of liver tissues were used fresh, embedded in optimum cutting temperature compound, and sectioned. The sections were stained with 0.5% oil red 0 according to standard procedures after fixed in 4% paraformaldehyde in PBS. Another part of liver tissues were collected and stored in −80° C. after liquid nitrogen quick-freezing, RNA. isolation (Code.R6934, OMEGA., USA), first cDNA reverse (Code.AT341, TransGen, China), SYBR mix (Code.AQ601, TransGen, China) for Q-PCR (LightCycler®96, Roche) to verify genes mRNA level, such as, fibrosis-related genes, Col1a1 and Col1a2; inflammation-related genes, IL-6 and IL-1β.

The test system of data set [3] is HFD/CCL4-induced NASH and liver fibrosis. Briefly: High-fat diet (HFD) combined with CCl4 (lower dose)-induced NASH model. It is filed as in vivo, mouse.
Excerpt: as §1

Data set [4] deals with T-ALL blast cells and TIM-3-high LICs. Briefly: Pten-null T-ALL mouse model, compound I-1 and/or rapamycin treatment.
Protocol: To generate a Pten-null T-ALL mouse model, Pten was 40% deleted in mouse fetal liver hematopoietic stem cells (HSCs), followed by PI3K-AKT pathway activation, hematopoietic disorder and T-ALL development. In the T-ALL crisis stage, T-ALL blasts and LICs would infiltrate mouse hematopoietic organs and non-hematopoietic organs.
After treatment, hematopoietic and non-hematopoietic organ morphology of the mice was analyzed using hematoxylin-eosin (H&E) staining.
Where [5] appears, read: preventive model, 5mpk i.p., 4 weeks.

Consider one compound from patent US20240018129A1, “COMPOUNDS AS PU. 1 INHIBITORS” (PEKING UNIVERSITY, priority 2020, published 2024).

The structures appear in SMILES notation.

Take `N=C(N)c1ccc2nc(-c3ccc(NC(=O)[C@@H]4CCCN4C(=O)[C@@H]4CCCN4C(=O)c4ccc(-c5nc6ccc(C(=N)N)cc6[nH]5)cc4)cc3)[nH]c2c1` [Compound I-1, (S)-1-((4-(6-carbamimidoyl-1H-benzo[d]imidazol-2-yl)benzoyl)-L-prolyl)-N-(4-(6-carbamimidoyl-1H-benzo[d]imidazol-2-yl)phenyl)pyrrolidine-2-carboxamide]: in data set [1] (preventive model, 5mpk i.p. simultaneously with bleomycin for 4 weeks, vs bleomycin/vehicle), the skin fibrosis progress entry was “significantly prevented”. For the same compound, in data set [1] (setting [5]), the collagen deposition result was “reducing” and the epidermal thickness entry was “reducing”. For the same compound, in data set [1] (preventive model, 5mpk i.p., 4 weeks, skin), the “mRNA level of Col1a1 and Col1a2” value is “decreasing”. In addition, the bleomycin-induced skin fibrosis entry in data set [1] (therapeutic model, 3 weeks bleomycin then 3 weeks treatment, 5mpk) is “significantly alleviated and reversed”. In addition, in data set [2], the CCl4-induced liver fibrosis result is reported as “alleviated”; the “collagen deposition and Sirius red-positive area” value is “significantly decreased”; the “inordinate mRNA level and blood biochemistry induced by CCl4 application” value is recorded as “ameliorated”. In the data set on NASH diet-induced NASH (2.5mpk i.p. daily for 6 weeks), the “efficacy when comparing with DB1976 (2.5mpk)” value is reported as “lower efficacy”; the “fat accumulation in liver” value was “decreased”; the “metabolic disturbance by NASH diet (body weight, liver fat, ALT, LDL-C, TC, IL-6, IL-1β, Col1a1, Col1a2)” value is on record as “tendency to alleviate”. Moreover, the “mRNA levels of IL-6, IL-1β and Col1a1, Col1a2” value in the data set with NASH diet-induced NASH (2.5mpk i.p. daily for 6 weeks, liver) is given as “lower”. Besides, in the data set on NASH diet-induced NASH (5mpk i.p. daily for 6 weeks), the “metabolic disturbance by NASH diet (body weight, liver fat, ALT, LDL-C, TC, IL-6, IL-1β, Col1a1, Col1a2)” value is given as “potently alleviated”. Moreover, the “level of serum ALT” value in data set [3] (fasting serum) was “tendency to reduce”. Also, the “serum triglyceride (TG) and total-cholesterol (TC)” value in data set [3] (fasting serum, i.p. once daily for 4 weeks) is “reduced”. Further, the “body weight, gWAT and iWAT weight radio increased by HFD/CCL4” value in data set [3] (i.p. once daily for 4 weeks with CCl4 under HFD) was “reversed”. In data set [3] (liver), the “reducing fat accumulation (H&E staining, liver steatosis score)” value is “not efficacious”; the “reducing inflammatory response (inflammatory infiltrates, inflammation score, liver mRNA of IL-1β and IL-6)” value is listed as “efficacious”. Besides, in data set [3] (mouse, in vivo), the “collagen deposition (sirius red staining) and liver mRNA level of Col1a1 and Col1a2” value is on record as “reduced”; the “hepatotoxicity under its effective concentration” value is recorded as “not hepatotoxic”; the “liver fibrosis induced by HFD/CCL4 application” value is listed as “significantly alleviated”. The “TIM-3 high LICs proportion” value in data set [4] (after two days' treatment, bone marrow, without treatment 33.5%) was 6.15%. Moreover, the “reduction of proportion of blasts (in words)” value in data set [4] (after two days' treatment, bone marrow, spleen and thymus) is recorded as “did not reduce”. Also, the “organ morphology (H&E staining) compared with T-ALL group” value in data set [4] (treated at blast crisis stage for one month, thymus and spleen) was “no significant changes”.
